PMC8986778, “Citrullination of glucokinase is linked to autoimmune diabetes” (Nature Communications, 2022)

How the values were obtained:
[1] = test system: INS-1E cells; test: Insulin secretion assay; type: cell-based, rat
Experimental: (§1) For insulin secretion assay, the INS-1E cells, a gift from Prof. Wollheim (CMU, Geneva, Switzerland)[53], were seeded on 6 well plate and cultured with recombinant mouse IFNγ (100 units/mL; R&D Systems) and recombinant human IL-1β (5 units/mL; R&D Systems) in the presence or absence of PAD2/PAD4 inhibitor (5 µM YW3-56; Cayman) for 48 hrs. Cells were washed and starved for 1 hr in low-glucose KREBS buffer (138 mM NaCl, 4.7 mM KCl, 1 mM CaCl2, 1.18 mM KH2PO4, 1.18 mM MgSO4, 5 mM NaHCO3, 25 mM Hepes (pH7.4), 0.1% BSA and 2.5 mM glucose). Assay buffer was then replaced with KREBS buffer containing either varying glucose concentration (2.5, 5, 9 and 16.7 mM), 10 mM sodium pyruvate or 30 mM KCl. After another 1 hr incubation, supernatants were collected and assayed for insulin by using Rat High Range Insulin ELISA kit (ALPCP) according to manufacturer’s protocol and analyzed using Microsoft excel Software. All experiments were performed using INS-1E cells between the 61st and 65th passage.

[2] = test system: PAD4; conditions: pan-PAD inhibitor; no reference printed (compound from Cayman); cited from earlier work
Experimental: Proinflammatory cytokines are known to attenuate glucose stimulated insulin secretion (GSIS), mediated by glucokinase, as studied elsewhere[29]–[31]. We utilized a subclonal cell line from the parenteral INS-1 cells, INS-1E, to examine GSIS and how citrullination may alter the glucose sensing/insulin secreting metabolic pathway. We also utilized YW3-56, a pan-PAD inhibitor (IC50: […] and 1–5 µM for PAD2 and PAD4, respectively), in studies of GSIS in INS-1E cells as a means of blocking protein citrullination. First, we confirmed by immunoblot detection of citrulline that IFNγ+ IL-1β cytoki ...

[3] = test system: INS-1E cells; test: Protein citrullination immunoblot (anti-modified citrulline); type: cell-based, rat; conditions: IFNγ 100U/ml plus IL-1β 5U/ml, 5 µM YW3-56, 48 hrs
Source text: Presence of citrullinated protein was detected by using anti-citrulline (Abcam, ab6464) for immunohistochemistry as described elsewhere, by using anti-peptidyl-citrulline, clone F95 (Millipore, MABN328) for flow cytometry and confocal microscopy and by using anti-modified citrulline detection kit, clone C4 (Millipore, 17-347B) for immunoblot according to manufacturer’s protocol. The specificity and sensitivity of the above commercial antibodies for the detection of protein citrullination were described previously[47],[48] and in our recent reports[9],[51],[52].
as §1, with “Assay buffer was then replaced with KREBS buffer containing either varying glucose concentration (2.5, 5, 9 and 16.7 mM), 10 mM sodium pyruvate or 30 mM KCl.” left out, “All experiments were performed using INS-1E cells between the 61st and 65th passage.” left out

[4] = test system: glucokinase; conditions: randomized, double-blind and placebo-controlled study; cited from earlier work
Source text: As mentioned above, ATP-dependent GK converts glucose to glucose-6-phosphate, the critical step in glucose metabolism. Alternative splicing of the GK gene results in three tissue-specific isoforms, isoform 1 (pancreas) and isoforms 2 and 3 (liver). The only difference among three GK isoforms is in the amino acid sequence of exon 1 in the first fifteen amino acids of human pancreatic glucokinase. Unlike other hexokinases, GK is not regulated by feedback inhibition by glucose-6-phosphate. Therefore, GK can constitutively trigger insulin secretion in pancreatic β-cells under high glucose cond ...

For YW3-56, the “citrullination levels or GSIS, inhibitor alone” value ([1]; 5 µM YW3-56 without cytokines, 48 hrs) was “did not affect”, the “cytokine-mediated suppression of insulin secretion upon pyruvate stimulation” value ([1]; 10 mM sodium pyruvate, 5 µM YW3-56 with cytokines 48 h) was “able to correct” and the “IFNγ + IL-1β suppressed GSIS” value ([1]; 16.7 mM glucose, YW3-56 cocultured with cytokines for 48 h) was “partially correct”. The “insulin secretion to depolarization with KCL” value ([1]; 30 mM KCl, cytokines in the presence or absence of YW3-56) was “not affected”, the insulin secretion ([1]; YW3-56 alone (no cytokine), glucose 2.5 (head prints nM), replicate 1) was 20.6698 and the insulin secretion ([1]; YW3-56 alone, KCl, replicate 1) was 216.859. It also gave an insulin secretion ([1]; YW3-56 alone, KCl, replicate 2) of 173.302, an insulin secretion ([1]; YW3-56 alone, KCl, replicate 3) of 216.475 and an insulin secretion ([1]; YW3-56 alone, glucose 2.5 (head prints nM), replicate 2) of 24.1975. For the same compound, the insulin secretion ([1]; YW3-56 alone, glucose 2.5 (head prints nM), replicate 3) was 21.4049, the insulin secretion ([1]; YW3-56 alone, glucose 5 (head prints nM), replicate 1) was 75.1459 and the insulin secretion ([1]; YW3-56 alone, glucose 5 (head prints nM), replicate 2) was 84.4819. The insulin secretion ([1]; YW3-56 alone, glucose 5 (head prints nM), replicate 3) was 61.4806, the insulin secretion ([1]; YW3-56 alone, glucose 16.7 (head prints nM), replicate 1) was 227.056 and the insulin secretion ([1]; YW3-56 alone, glucose 16.7 (head prints nM), replicate 2) was 273.99. For the same compound, the insulin secretion ([1]; YW3-56 alone, glucose 16.7 (head prints nM), replicate 3) was 236.558, the insulin secretion ([1]; YW3-56 alone, pyruvate, replicate 1) was 292.452 and the insulin secretion ([1]; YW3-56 alone, pyruvate, replicate 2) was 273.99. It also gave an insulin secretion ([1]; YW3-56 alone, pyruvate, replicate 3) of 273.99, an insulin secretion ([1]; cytokine (IFNγ + IL-1β) + YW3-56 5 µM 48 hrs, 1 hr glucose 2.5 (head prints nM), replicate 1) of 42.5356 and an insulin secretion ([1]; cytokine + YW3-56 48 hrs, KCl, replicate 1) of 91.8746. It also gave an insulin secretion ([1]; cytokine + YW3-56 48 hrs, KCl, replicate 2) of 82.0356, an insulin secretion ([1]; cytokine + YW3-56 48 hrs, KCl, replicate 3) of 59.5376 and an insulin secretion ([1]; cytokine + YW3-56 48 hrs, glucose 2.5 (head prints nM), replicate 2) of 26.9388. The insulin secretion ([1]; cytokine + YW3-56 48 hrs, glucose 2.5 (head prints nM), replicate 3) was 26.5034, the insulin secretion ([1]; cytokine + YW3-56 48 hrs, glucose 5 (head prints nM), replicate 1) was 38.7513 and the insulin secretion ([1]; cytokine + YW3-56 48 hrs, glucose 5 (head prints nM), replicate 2) was 47.2935. It also gave an insulin secretion ([1]; cytokine + YW3-56 48 hrs, glucose 5 (head prints nM), replicate 3) of 37.2188, an insulin secretion ([1]; cytokine + YW3-56 48 hrs, glucose 16.7 (head prints nM), replicate 1) of 95.9987 and an insulin secretion ([1]; cytokine + YW3-56 48 hrs, glucose 16.7 (head prints nM), replicate 2) of 101.342. It also gave an insulin secretion ([1]; cytokine + YW3-56 48 hrs, glucose 16.7 (head prints nM), replicate 3) of 93.7876, an insulin secretion ([1]; cytokine + YW3-56 48 hrs, pyruvate, replicate 1) of 78.6578 and an insulin secretion ([1]; cytokine + YW3-56 48 hrs, pyruvate, replicate 2) of 90.7306. The insulin secretion ([1]; cytokine + YW3-56 48 hrs, pyruvate, replicate 3) was 140.964, the IC50 [2] was 1 to 5 µM and the “IFNγ+ IL-1β cytokine-induced citrullination levels” value [3] was “reduced”.
For CCCO[C@H]1CC[C@H](N(C(=O)Nc2ncc(SCC(=O)O)s2)C2CCCCC2)CC1 [TTP399], the “clinical effect in patients with T1D” value [4] is listed as “lower HbA1C and reduce hypoglycemia without increasing the risk of ketosis”.
